We go through 3 compounds from patent US8771983B2, “Method and kit for expressing protein under regulation of the expression from repeated sequence formed by gene amplification, and transformant” (National University of Corporation Hiroshima University, priority 2004, dated 2014).

Data set [1] relates to expression of d2EGFP in human colon cancer cells COLO 320DM cells. Description: Level of expression of d2EGFP after treatment of cells with 5-aza-2′-deoxycytidine and/or Trichostatin A (Example 6). In kind it is cell-based. The method, then:
(§1) Fluorescence intensity of these cells were measured by using a cell sorter. The measurement was carried out by sorting 20,000 cells by setting living cells at a gate. The cell sorter used was made by Becton Dickinson, and operated under conditions as described in the manual attached thereto.
(§2) In this method for detecting the fluorescence intensity, detection limit was 1, and all fluorescence intensities of 1 or less would be detected as 1. In view of this, a product of a ratio (cell %) of cells of fluorescence intensities of 2 or more in all living cells (10,000 cells) and an average of the fluorescence intensities of the cells having fluorescence intensities of 2 or more was calculated out for each experimental plot. This product is referred to as “accumulated fluorescence intensity” hereinafter and in later Examples and shown in boxed letter in the figures.
A mixture of a plasmid (pSFVdhfr/d2EGFP) and the plasmid DNA having the Aves-derived HS4 insulator sequence was transfected to human colon cancer cells COLO 320DM cells by lipofection. The plasmid (pSFVdhfr/d2EGFP) was a plasmid having (a) IR and MAR derived from human DHFR gene locus, (b) Blasticidin tolerance gene, and (c) d2EGFP gene that was under control of TRE-promoter (Tetracycline inducing promoter). The plasmid DNA having the Aves-derived HS4 insulator sequence was identical with the one described in Example 2. From 2 days later since the gene transfection, the cells were selected with 5 μg/ml of Blasticidin (Funakoshi Corp.). After 3 to 4 weeks, many colonies of transformed cells were obtained.
Into a culture solution of the transformed cells, of 1 μM or 3 μM of 5-aza-2′ deoxycytidine (hereinafter referred to as “5-aza” where appropriate; Sigma) was added. Thereby, the cells were treated with 5-aza for 3 days. For comparison purposes, 20 nM of Trichostatin A (hereinafter referred to as “TSA” where appropriate; histone deacetylation inhibitor, Sigma), which is known as a material for increasing gene expression from the repeated sequence, was added to some culture solutions of the transformed cells and analyzed.

For data set [2], the system named is expression of d2EGFP in human colon cancer COLO 320DM cells. Briefly: Change over time of d2EGFP expression after induction with Doxycycline in cells cotransfected with pSFVdhfr/d2EGFP and pTet-ON plasmid (Example 8). The format is cell-based. As to conditions: polyclonal population. As for the experimental part: as §1, §2
An equimolar mixture of a plasmid (pSFVdhfr/d2EGFP) and pTet-ON plasmid (Clontech Laboratories Inc.) was simultaneously transfected into human colon cancer COLO 320DM cells. The plasmid (pSFVdhfr/d2EGFP) was a plasmid having (a) IR and MAR derived from human DHFR gene locus, (b) Blasticidin tolerance gene, and (c) d2EGFP gene that was under control of TRE-promoter (Tetracycline inducing promoter). Meanwhile, the pTet-ON plasmid was a plasmid having Tet-ON gene encoding the transcription activating factor (Tet-ON protein) of TRE-promoter. The cells were selected with 5 μg/ml of Blasticidin thereby obtaining a polyclonal population of transformed cells. TRE-promoter was activated by adding 1 μg/ml of Doxycycline (Clontech Laboratories Inc.) in the medium of a cell culturing solution of the polyclonal population, thereby inducing the expression of d2EGFP.
Next, after the expression of d2EGFP was induced by Doxycycline, the level of the expression of d2EGFP was analyzed by using a cell sorter so as to find a change in the level of the expression of d2EGFP over time. […] In FIG. 16, the value in parenthesis is an average of fluorescence intensities (i.e., average fluorescence intensity), and boxed value is an accumulated fluorescence intensity.
FIG. 17 illustrates a graph plotting the averages (i.e., average fluorescence intensities: indicated by filled circles in FIG. 17) and living cell ratio (a ratio of living cells over total cell number: indicated by open circles) of the level of the expression of d2EGFP against time. […] The level was maintained high even after two weeks lapsed (labeled as “2wk” in FIG. 17).

Data set [3] concerns expression of d2EGFP in Tet-ON cells (COLO 320DM) transfected with pSFVdhfr/d2EGFP. Description: Level of expression of d2EGFP by cell sorter in HSR and DM clones of Tet-ON cells with 5-aza (Example 7). In kind it is cell-based, human. Conditions: polyclonal population of Tet-ON cells with pSFVdhfr/d2EGFP; 5 μg/ml of Doxycycline. The method, then:
as §1, §2
By lipofection, the pTet-ON plasmid (Clontech Laboratories Inc.) having Tet-ON gene encoding a transcription activating factor (Tet-ON protein) for promoting TRE-promoter was transfected into human colon cancer COLO 320DM. Transformed cells (hereinafter referred to as “Tet-ON cells”) which stably expressed Tet-ON protein, were selected with Hygromycin.
Next, the pSFVdhfr/d2EGFP plasmid was transfected into the Tet-ON cells by lipofection. The cells thus obtained were selected with 5 μg/ml of Blasticidin for approximately 3 weeks, thereby obtaining a polyclonal population of the stable transformed cells.
The expression of d2EGFP was induced in the polyclonal population by activating TRE-promoter by adding 5 μg/ml of Doxycycline (Clontech Laboratories Inc.) in the medium. FIG. 9 illustrates a result of analysis of the level of the expression of d2EGFP in this case by using a cell sorter. In FIG. 9, the value in parenthesis is an average of fluorescence intensities (i.e., average fluorescence intensity), and boxed value is an accumulated fluorescence intensity. Based on the result of FIG. 9, it was confirmed that the polyclonal population was a population for expressing d2EGFP (average fluorescence intensity: 6.25, accumulated fluorescence intensity: 536).
From the polyclonal population, given 30 clones were obtained by a limiting dilution method that was carried out by inoculating a clone to 6 well plates with such a low cell concentration of 30 cells/ml, and incubating the plates for 10 days to 2 weeks thereby obtaining colonies thereon.
From among the clones, 4 clones having high levels of expression of d2EGFP (Clone 4, Clone 5, Clone 6, and Clone 9) were selected by fluorescence microscopic observation. Mitotic chromosome samples of the 4 clones were prepared. By FISH method, detection for a base sequence derived from the transfected pSFVdhfr/d2EGFP plasmid was carried out. The preparation of mitotic chromosome samples and the FISH method were carried out as described in Shimizu, N., Kanda, T., and Wahl, G. M. Selective capture of acentric fragments by micronuclei provides a rapid method of purifying extrachromosomally amplified DNA. Nature Genet., 12: 65-71, 1996.
For 4 clones, induction with Doxycycline (Clontech Laboratories Inc.; 1 μg/ml) was carried out and 5-aza (0 μM, 1 μM or 3 μM) was added in the medium. After 1 week culturing, the level of expression of d2EGFP in each clone was analyzed by using a cell sorter.

The test system of data set [4] is expression of d2EGFP in human colon cancer cell COLO 320DM cells. Description: Level of expression of d2EGFP by cell sorter after selection with stepwise increasing Blasticidin concentrations (Example 3). The format is cell-based. As to conditions: 1 μg/ml Doxycycline. The method, then: as §1, §2
A plasmid (pSFVdhfr/d2EGFP) was transfected into human colon cancer cell COLO 320DM cells by lipofection. The plasmid (pSFVdhfr/d2EGFP) was a plasmid having (a) IR and MAR derived from human DHFR gene locus, (b) Blasticidin tolerance gene, and (c) d2EGFP gene that was under control of TRE-promoter (Tetracycline inducing promoter). The transformed cells were selected with 5 μg/ml of Blasticidin (Funakoshi Corp.) thereby obtaining many transformed clones. After the clones were mixed, the culturing was continued. […] Cells select with the respective Blasticidin concentrations were treated with 1 μg/ml of Doxycycline (Clontech Laboratories Inc.) added to the media so as to activate TRE-promoter and thereby inducing expression of d2EGFP (whose half-life is much shorter than general EGFP.

Setting [5] is: fifteen hours after the addition of Doxycycline (1 μg/ml).
Where [6] appears, read: forty eight hours (2 days) after the addition of Doxycycline (1 μg/ml).
[7] abbreviates: one hour after the addition of Doxycycline (1 μg/ml).
The mark [8] stands for this setting: one hundred twenty hours (5 days) after the addition of Doxycycline (1 μg/ml).
[9] abbreviates: six hours after the addition of Doxycycline (1 μg/ml).
Setting [10] is: three hours after the addition of Doxycycline (1 μg/ml).
[11] abbreviates: twenty four hours after the addition of Doxycycline (1 μg/ml).
Where [12] appears, read: two weeks after the addition of Doxycycline (1 μg/ml).
Setting [13] is: pSFVdhfr/d2EGFP cells selected with 5 μg/ml of Blasticidin.
Setting [14] is: pSFVdhfr/d2EGFP cells selected with 40 μg/ml of Blasticidin.
[15] abbreviates: pSFVdhfr/d2EGFP cells selected with 160 μg/ml of Blasticidin.
Where [16] appears, read: pSFVdhfr/d2EGFP cells selected with 320 μg/ml of Blasticidin.

Regarding `CC(/C=C/C(=O)NO)=C\[C@@H](C)C(=O)c1ccc(N(C)C)cc1` [TSA, Trichostatin A], in data set [1] (20 nM of TSA), the accumulated fluorescence intensity was 228 and the average fluorescence intensity was found to be 3.02. In addition, in data set [1] (20 nM of TSA versus cells before treatment), the “effect on the expression of the target protein” value is given as “cannot increase the expression of the target protein”.

Regarding `C[C@H]1c2cccc(O)c2C(=O)C2=C(O)[C@]3(O)C(=O)C(C(N)=O)=C(O)[C@@H](N(C)C)[C@@H]3[C@@H](O)[C@@H]21` [Doxycycline], the accumulated fluorescence intensity came to 841 in data set [2] (setting [5]); 5320 in data set [2] (setting [6]); 216 in data set [2] (setting [7]); 3880 in data set [2] (setting [8]); 341 in data set [2] (setting [9]); 293 in data set [2] (setting [10]). Further, the accumulated fluorescence intensity in data set [2] (setting [11]) was 2800; in data set [2] (setting [12]), 3500; in data set [3], 536. The average fluorescence intensity in data set [2] (setting [5]) amounted to 9.24; in data set [2] (setting [6]), 53.97; in data set [2] (setting [7]), 2.99; in data set [2] (setting [8]), 39.56; in data set [2] (setting [9]) it was 4.22; in data set [2] (setting [10]) it was 3.72. The average fluorescence intensity in data set [2] (setting [11]) turned out to be 28.77; in data set [2] (setting [12]), 35.32; in data set [3] it was 6.25. In data set [2] (expression of d2EGFP induced by Doxycycline, up to two weeks), the “survival ratio of the cells (living cell ratio)” value is “no decrease in the survival ratio”.

For `CN(CC[C@H](N)CC(=O)N[C@H]1C=C[C@H](n2ccc(N)nc2=O)O[C@@H]1C(=O)O)C(=N)N` [Blasticidin], the average fluorescence intensity in data set [4] (pSFVdhfr/d2EGFP cells selected with 10 ng/ml of Blasticidin) came to 3.77; in data set [4] (setting [13]), 2.94; in data set [4] (setting [14]), 6.67; in data set [4] (setting [15]), 9.47; in data set [4] (setting [16]) it was 18.55. Besides, the accumulated fluorescence intensity in data set [4] (setting [13]) was 222; in data set [4] (setting [14]), 640; in data set [4] (setting [15]) it was 929; in data set [4] (setting [16]), 1850.
